Patent US9505735B2, “Compounds for treating infectious diseases” (Whitehead Institute for Biomedical Research, priority 2012, dated 2016)

What was measured:
[1] = tested on: fluconazole-resistant C. albicans strains CaCi2, 8 and 17; experiment: Filamentation, liquid assay; format: cell-based; settings: 5 μM
Experimental: For liquid assays, C. albicans strains were grown overnight in YPD with DMSO or 5 μM gepinacin. After dilution to an OD600 of 0.1 in Spider media, growth was continued for an additional 3 hours with agitation at 37° C. in the presence of compound before transfer to a 24 well plate for imaging (Shen, et al. (2008) Proc Natl Acad Sci USA 105, 20918-20923). Assays with S. cerevisiae strain Sigma 1278B on solid media were performed as previously described (Liu, et al. (1994) Science 266, 1723-1726) except gepinacin was added directly to partially cooled plate media and colonies were imaged after growth for 6 or 9 days at 30° C.
Because of its role in tissue invasion, a key determinant of fungal virulence is the ability to switch between yeast and filamentous forms (Shapiro, et al. (2011) Microbiol Mol Biol Rev 75, 213-267; Sudbery, (2011) Nat Rev Microbiol 9, 737-748; Noble, et al. (2010) Nat Genet 42, 590-598). A previous report has shown that mature GPI-anchors are required for this process (Richard, et al. (2002) Microbiology 148, 2125-2133). […] In the absence of gepinacin, all three drug-resistant clinical isolates underwent marked transformation to large macroscopic mats, readily visible to the eye. […]

Gwt1 = target: T1, Gwt1 (Saccharomyces cerevisiae, UniProt P47026); experiment: In vitro acylation assay with yeast membranes; format: biochemical, S. cerevisiae
T1 construct: Wildtype S. cerevisiae BY4741; endogenous in cells; host or cells: S. cerevisiae BY4741 (wild type)
T1 sequence (P47026 1-490): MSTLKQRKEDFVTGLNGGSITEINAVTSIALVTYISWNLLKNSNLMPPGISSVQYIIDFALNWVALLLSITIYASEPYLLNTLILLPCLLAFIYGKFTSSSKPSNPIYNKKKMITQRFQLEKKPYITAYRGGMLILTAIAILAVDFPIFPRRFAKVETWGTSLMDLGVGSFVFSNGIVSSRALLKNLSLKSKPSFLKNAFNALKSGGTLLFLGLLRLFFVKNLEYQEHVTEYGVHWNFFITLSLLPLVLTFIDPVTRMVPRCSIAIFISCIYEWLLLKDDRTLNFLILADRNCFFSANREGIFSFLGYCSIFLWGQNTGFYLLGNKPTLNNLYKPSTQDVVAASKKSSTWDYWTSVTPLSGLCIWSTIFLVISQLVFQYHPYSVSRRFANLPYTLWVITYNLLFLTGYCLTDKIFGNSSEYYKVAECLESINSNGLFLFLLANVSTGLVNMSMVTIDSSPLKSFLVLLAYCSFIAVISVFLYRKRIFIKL
Experimental: Experiments were performed using a previously published protocol (Umemara, et al. (2003) J Biol Chem 278, 23639-23647) with the following modifications; UDP[^3H]GlcNAc was used instead of [^14C] and TLC plates were imaged by autoradiography. Lipid extracts were treated overnight with phosphatidylinositol-specific phospholipase C to confirm that the band identified as GlcN-(acyl)PI was resistant to cleavage (data not shown).
Production of GPI-anchors begins on the cytoplasmic surface of the ER but is completed on the luminal side. Gwt1 (in yeast) or PIG-W (mammalian) acts at the first step on the luminal side of the ER, the acylation of glucosamine phosphatidylinositol (GlcN-PI) (FIG. 2b) (Sagane, et al. (2011) J Biol Chem 286, 14649-14658; Murakami, et al. (2003) Mol Biol Cell 14, 4285-4295). To provide direct biochemical evidence that Gwt1 is the proximal protein target of gepinacin in vitro acylation reactions were performed using yeast membrane preparations. UDP[^3H]GlcNAc was incubated with the membranes, and the resulting lipid products were recovered by chemical extraction and fractionated by silica gel thin layer chromatography (TLC). The appearance of a phospholipase-C insensitive band indicated the production of the acylated product.

Aspergillus terreus = experiment: Antifungal susceptibility testing (mold, MIC50/MIC80); format: cell-based
Experimental: Sensitivity to gepinacin was determined in 96-well, flat bottom microtiter plates using a modification of the NCCLS broth microdilution protocol CLS M27-A3 and RPMI as culture medium. Fungi were inoculated at ˜10^3 cells per ml and incubated for 48 hours at 37° C. after which plates were sealed, shaken and the optical density read at 600 nm (OD600) on a Tecan Safire 2 plate reader. All samples were run in duplicate or triplicate and assays were repeated at least once. Results are expressed as fraction of growth in the absence of compound and the mean and standard deviation are plotted. For the mold A. terreus, inoculum was 10^4 cells per ml and plates were incubated at 35° C. for 48 hours in the dark. Plates were then visually scored as specified by CLSI document M38-A2 to determine the MIC50 and MIC80.

[2] = tested on: unfolded protein response; experiment: Unfolded protein response GFP reporter (UPRE-GFP), flow cytometry; format: cell-based, S. cerevisiae; settings: 5 hours
Experimental: Induction of the unfolded protein response in cells carrying a GFP reporter construct was monitored by flow cytometry after exposure to serial dilutions of the indicated compounds for 5 hrs.
The plasmid pRS304-4XUPRE-GFP was linearized and integrated into the TRP1 locus of S. cerevisiae (W303) to construct a reporter strain as previously described (Cox, et al. (1993) Cell 73, 1197-1206; Pollard, et al. (1998) Mol Cell 1, 171-182). Reporter cells were grown to log phase and exposed to compound at 23° C. for 5 hours before analysis. GFP reporter induction was monitored on a Guava EasyCyte Plus cytometer. The average mean channel fluorescence of duplicate samples was determined, and the experiment was performed twice with similar results.

COc1ccc(NC(=O)COc2cccc(OCC(C)C)c2)cc1 [gepinacin]
filamentation in Spider medium [1]: completely blocked | acyltransferase activity, strain expressing the yeast gene (Gwt1; membranes of low copy plasmid strain): potently inhibited | acylation of GlcN-PI (Gwt1; yeast membrane preparations, inactive analog at 10 μM): inhibited the acylation of GlcN-PI at low micromolar concentration | growth inhibition (Aspergillus terreus): inhibited the growth | activation of the unfolded protein response (GFP reporter) [2]: massive, concentration-dependent activation
